Reference: patent publication US4590166A, “Method for separating and measuring the amount of polar compounds and their metabolites in aqueous solutions” (priority 1983, dated 1986)

Key:
[1] = urinary excretion of pyridostigmine in rats; format: in vivo, rat
Method: (§1) For animal studies, rats weighing 175-225 g were placed in metabolic cages and deprived of solid food for 14 hours. For urine studies they were hydrated by the administration of 2.5 ml per 100 g of warm water by stomach tube. This was repeated after 1 hour. An 80 μg aliquot of pyridostigmine in 0.2 ml water was injected intramuscularly into a hind limb. Urine free from feces was collected over a period of 24 hours. In blood studies a similar dose was administered intramuscularly. At selected intervals over a period of 1 hour blood specimens were collected from excised hearts.
(§2) The assay was applied to the quantitation of pyridostigmine in urine and plasma of rats following the oral administration of 450 μg of pyridostigmine bromide per kg of body weight. One ml of urine and 1.5 ml of plasma samples were used for an assay. The urinary excretion of pyridostigmine in three rats over a 24-hour period was 60.0 and 65.4% of […]

[2] = plasma levels of pyridostigmine in rats; format: in vivo, rat
Method: as §1, §2

[3] = extraction of pyridostigmine from basic solutions by organic solvents; format: physicochemical

Structure (SMILES): CN(C)C(=O)Oc1ccc[n+](C)c1 [pyridostigmine]
- urinary excretion of pyridostigmine (% of the total dose injected) ([1]; over a 24-hour period, 450 μg/kg pyridostigmine bromide, 0.45 mg/kg, 1440 min): 65.4%
- dose excreted at 48 h ([1]; rat, urine, im, 0.08 mg, between 24 and 48 hours, read-out: urinary excretion (% of the total dose injected)): < 5%
- dose excreted at 24 h ([1]; rat, urine, im, 0.45 mg/kg, over a 24-hour period, 450 μg/kg pyridostigmine bromide, read-out: urinary excretion of pyridostigmine (% of the total dose injected)): 60%
- initial plasma concentrations relative to that of urine ([2]; average of three experiments for a single time point): about 1/25
- concentration at 7 min ([2]; plasma, im, 0.08 mg, approximately 80 μg per rat, after 7 min): 250 ng/mL
- concentration at 1 h ([2]; plasma, im, 0.08 mg, approximately 80 μg per rat, within 1 hour): < 50 ng/mL
- extraction from basic solutions by organic solvents of various polarities [3]: could not extract
